# Experimental data: patent US20140242200A1, “WATER-SOLUBLE EXTRACTS OF ARTEMISIA DRACUNCULUS (TARRAGON) FOR IMPROVEMENT OF GLUCOSE METABOLISM” (Finzelberg GmbH & Co. KG, priority 2008, published 2014)
# Key:
# [1] = test system: Male non-fasted Wistar rats; experiment: Glucose challenge test (i.p. glucose) in rats; format: in vivo; settings: oral treatment 30 min before i.p. glucose; extracts 6 mg/kg; blood samples 0-120 min; one-way ANOVA, Student-Newman-Keuls
# Experimental: (§1) A common way of testing for an effect of extracts or new chemical entities on blood glucose levels is the glucose challenge test (Verspohl, E. J.: Recommended testing in diabetes research. Planta Med 68 (7): 581-90, 2002) in which rats are given the extract, control, or a known antidiabetic substance with (challenge) and without (basal) an intraperitoneal (i.p.) dose of glucose. The extracts are given orally 30 min. before the glucose challenge. Blood samples are taken sublingual at time points 0, 15, 30, 60, and 120 minutes for the glucose challenge or 0, 30, 60, 120, and 180 minutes for basal blood glucose levels. This sampling scheme ensures to monitor both effects of extracts on basal blood glucose levels over a longer time period and the blood glucose levels after glucose challenge closely enough. […]
# (§2) Blood was drawn at the appropriate time points from the sublingual vein after a short halothane anesthesia and stored at 4° C. with addition of heparin. […] The supernatant plasma was taken and analyzed using an autoanalyzer (Merck, Darmstadt). […]
# (§3) Both percent and AUC data were analyzed by one-way ANOVA and Student-Newman-Keuls Multiple Comparison Test using Graphpad 4.0 Software, San Diego, USA. The AUC (area under the curve) was calculated using the trapezoidal rule without extensions beyond the last time point measured.
# [2] = test system: Male non-fasted Wistar rats; experiment: Basal blood glucose levels in rats (no glucose challenge); format: in vivo; settings: oral treatment, extracts 6 mg/kg, blood samples 0-180 min, one-way ANOVA, Student-Newman-Keuls
# Experimental: as §1, §2, §3
SMILES,effect on lowering the blood glucose levels following the i.p. glucose challenge [1],effect on basal blood glucose levels [2]
COc1ccc(Cl)cc1C(=O)NCCc1ccc(S(=O)(=O)NC(=O)NC2CCCCC2)cc1 [glyburide],significant effect,significant effect
N[C@@H](CC(=O)N1CCn2c(nnc2C(F)(F)F)C1)Cc1cc(F)c(F)cc1F [sitagliptin],significant effect,significant effect
